# Key:
# [1] = target: T1, N-demethylase (Ndm: NdmA and NdmB subunits) (Pseudomonas putida, UniProt H9N289+H9N290); experiment: Methylxanthine N-demethylase activity assay with purified Ndm plus partially purified Ccr; format: biochemical, Pseudomonas putida CBB5; settings: for Relative N-demethylase activity: relative to paraxanthine
# T1 construct: lane 3, natural Ndm purified from P. putida CBB5; made in house; host or cells: purified from the natural strain Pseudomonas putida CBB5 (DEAE, Phenyl and Q Sepharose); not recombinant
# T1 sequence (H9N289 1-351): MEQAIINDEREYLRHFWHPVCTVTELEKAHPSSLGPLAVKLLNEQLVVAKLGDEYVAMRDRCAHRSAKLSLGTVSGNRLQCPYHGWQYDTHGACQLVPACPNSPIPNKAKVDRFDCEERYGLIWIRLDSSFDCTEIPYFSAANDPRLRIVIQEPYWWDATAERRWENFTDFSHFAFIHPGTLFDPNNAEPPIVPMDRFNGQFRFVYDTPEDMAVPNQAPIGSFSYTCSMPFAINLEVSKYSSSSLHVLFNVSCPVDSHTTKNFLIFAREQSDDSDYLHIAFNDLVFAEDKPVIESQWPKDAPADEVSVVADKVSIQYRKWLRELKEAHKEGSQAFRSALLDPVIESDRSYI
# T1 sequence (H9N290 1-355): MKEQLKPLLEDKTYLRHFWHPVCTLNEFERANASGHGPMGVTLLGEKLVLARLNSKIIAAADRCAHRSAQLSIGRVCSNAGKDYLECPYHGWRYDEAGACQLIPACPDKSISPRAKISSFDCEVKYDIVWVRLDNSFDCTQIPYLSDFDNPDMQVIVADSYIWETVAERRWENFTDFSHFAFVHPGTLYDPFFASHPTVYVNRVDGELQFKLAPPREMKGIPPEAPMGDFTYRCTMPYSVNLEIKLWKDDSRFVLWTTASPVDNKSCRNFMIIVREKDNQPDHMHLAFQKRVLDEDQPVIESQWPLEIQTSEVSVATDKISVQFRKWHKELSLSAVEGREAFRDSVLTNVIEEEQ
# Protocol: Methylxanthine N-demethylase activity assay contained, in 1-mL total volume, 0.5 mM methylxanthine, 1 mM NADH, 50 μM Fe(NH4)2(SO4)2, and an appropriate amount of Ndm (0.08-7.5 mg protein, depending on purity of the protein) in 50 mM KPi buffer. Approximately 4 U of partially purified Ccr was added to reaction mixture when assaying Ndm in Phenyl Sepharose and Q Sepharose eluant-fractions (Ccr was not added to the enzyme reaction mixture when assaying Ndm activity in DEAE Sepharose eluant-fractions because Ccr co-eluted with Ndm). The reaction mixture was incubated at 30° C. with 300 rpm shaking on an incubating microplate shaker (VWR). Periodically, a small aliquot was sampled from the reaction mixture and mixed with equal volume of acetonitrile for quantifying concentrations of methylxanthines and N-demethylated products by HPLC. One unit of N-demethylase activity was defined as the consumption of one μmole methylxanthine per minute. When Ndm was coupled with the reductase and ferredoxin components of naphthalene dioxygenase of Pseudomonas sp. strain 9816 (Haigler & Gibson, 1990a; Haigler & Gibson, 1990b), 30 and 100 μg of the respective proteins were used. Spinach ferredoxin reductase and ferredoxin were also substituted for Ccr as described by Subramanian et al. (1979).
# Determination of Kinetic Parameters. Apparent kinetic parameters of Ndm were determined by measuring the initial rate of disappearance (vo) of paraxanthine or 7-methylxanthine in 50 mM KPi buffer (pH 7.5) at 30° C. The paraxanthine and 7-methylxanthine concentrations ([S]) used in these experiments were from 20 to 500 μM. Substrates were incubated with Ndm and Ccr under standard conditions for 15 minutes. At 1, 5, 10, and 15 minutes, samples were removed from the reaction mixtures to quantitate substrate concentrations by HPLC. Plots of substrate concentrations against time were used to determine the initial rates of disappearance of substrates which were linear over 15 minutes. The apparent kinetic parameters were determined from Michaelis-Menten plots of Vo against [S] fitted with the equation
# Determination of Oxygen Requirement. Oxygen consumption by Ndm during N-demethylation of paraxanthine was determined in a closed reaction vessel equipped with a Clarke-type oxygen electrode (Digitial Modell 0, Rank Brothers Ltd., Cambridge, England). The electrode was calibrated by using glucose oxidase (Sigma) and glucose for consumption of oxygen. Ndm activity assay was performed at 30° C. in a total volume of 1 ml of air-saturated 50 mM KPi buffer (pH 7.5) with 100 μM paraxanthine, 200 μM NADH, 50 μM Fe(NH4)2(SO4)2, 0.2 mg purified Ndm, and 4 U partially purified Ccr. The reaction was initiated by adding Ndm and partially purified Ccr after equilibration of all other reaction components for 3.3 minutes. After 13 minutes, a 100-μL aliquot was withdrawn from the reaction, immediately mixed with equal volume of acetonitrile to stop the enzyme reaction, and analyzed for N-demethylation product by HPLC. Background oxygen consumption, possibly due to NADH oxidase enzyme activity in the partially purified Ccr, was quantitated in control reactions containing all reaction components except paraxanthine.
# Formaldehyde Determination. […] Twenty μL Nash reagent was added to 50 μl Ndm reaction sample plus 50 μl acetonitrile. This mixture was incubated at 51° C. for 12 minutes.
# NdmB-His6 = target: T2, NdmB-His6 (Pseudomonas putida, UniProt H9N290); experiment: Methylxanthine N-demethylase assay and kinetics, NdmB-His6 with His6-NdmD; format: biochemical, Pseudomonas putida CBB5; settings: NdmB-His6
# T2 construct: made in house; host or cells: E. coli BL21(DE3)
# T2 sequence (H9N290 1-355): T1 sequence (H9N290 1-355)
# Protocol: Methylxanthine N-demethylase activity assay contained, in 1-ml total volume, 0.5 mM methylxanthine, 1 mM NADH, 50 μM Fe(NH4)2(SO4)2, and an appropriate amount of NdmA-His6 or NdmB-His6 (7.4 μg-2.5 mg protein depending on substrate specificity) in 50 mM KPi buffer (pH 7.5). Approximately 4 U of partially purified reductase, prepared as described previously (Summers et al., 2011) or 59 U of purified His6-NdmD was added to reaction mixture. Catalase from bovine liver (4,000 U) was also added to reactions containing His6-NdmD. The reaction mixture was incubated at 30° C. with 300 rpm shaking on an incubating microplate shaker (VWR, Radnor, Pa.). Periodically, a small aliquot was sampled from the reaction mixture and mixed with equal volume of acetonitrile for quantifying concentrations of methylxanthines and N-demethylated products by HPLC. One unit of N-demethylase activity was defined as the consumption of one […] methylxanthine per minute.
# Apparent kinetic parameters of NdmA-His6 and NdmB-His6 were determined by measuring the initial rate of disappearance (vo) of methylxanthines in 50 mM KPi buffer (pH 7.5) at 30° C. The initial substrate concentrations (ESI) used in these experiments were from 25 to 500 μM. Substrates were incubated with His6-NdmD plus either NdmA-His6 or NdmB-His6 under standard conditions for 15 minutes. At 1, 5, 10, and 15 minutes, samples were removed from the reaction mixtures to quantitate substrate concentrations by HPLC. Plots of substrate concentrations against time were used to determine the initial rates of disappearance of substrates which were linear over 15 minutes. The apparent kinetic parameters were determined from Michaelis-Menten plots of vo against [S] fitted with the equation
smiles,measurement,setting,value
"Cn1cnc2c1c(=O)[nH]c(=O)n2C [Theobromine, 3,7-dimethylxanthine]",Products identified,[1]; same products at 500 and 200 μM substrate,"3- & 7-methylxanthine, and xanthine"
same,Relative N-demethylase activity,[1]; substrate conc. 200 μM,80.2 ± 7.8
same,Relative N-demethylase activity,[1]; substrate conc. 500 μM,59.8 ± 1.9
same,Product,NdmB-His6,7-methylxanthine
same,N-demethylation by NdmC fraction,NdmC,not N-demethylated

# Reference: patent US8951752B2, “N-demethyase genes and uses thereof” (priority 2011, dated 2015)
